Assay results reported in article PMC7531004, “Discovery of gramicidin A analogues with altered activities by multidimensional screening of a one-bead-one-compound library” (Nature Communications, 2020).
Where a SMILES comes first, the peptide text is derived from it. [ ]: non-standard residue; d: D form. The star is where a group is joined. NHCH2CH2OH = OCCN*; For = O=C*

Tests used:
[1] = H+/Na+ transport assay of bead-derived peptides (one-point); assay type: biochemical; parameters: key: relative activity; mean of two control wells = 1.00; conditions: bead-derived peptide solution, EYPC/EYPG LUVs;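 further: relative to parent gramicidin A activity set to 1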
Procedure, shortened: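 Miniaturized 96-well format. LUVs with entrapped pyranine (1.0 mM) were exposed to peptide for 30 min at RT. Intensities were expressed relative to full lysis by Triton X-100 and no treatment, with control-well mean = 1.00.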

[2] = tested on: P388 mouse leukemia cells; conditions: 92 h
Procedure, shortened: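 Peptide stocks diluted 250× in growth medium; P388 cells 1 × 10^4 cells/mL final; 37 °C, 5% CO2, 92 h. WST-1 + 1-methoxy PMS, 4 h, A415. Output: % viability.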

[3] = tested on: Streptococcus pyogenes SSI-9; assay: Antibacterial activity assay of bead-derived peptides (three concentrations); assay type: cell-based; parameters: key: +++: inhibition by the 640-fold diluted peptide solution; ++: inhibition by the 160-fold diluted solution; +: inhibition by the 40-fold diluted solution; -: no inhibition; conditions: S. pyogenes, bead-derived peptide solution, three concentrations
Procedure, shortened: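 First, each peptide stock was diluted 4- and 16-fold in DMSO; next, the three solutions were mixed with S. pyogenes SSI-9 suspension (2 × 10^5 CFU) in cation-adjusted Mueller Hinton Broth plus 5% laked horse blood; finally, plates stood 18 h at 37 °C before checking for grown-cell precipitation.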

| SMILES | H+/Na+ transport activity normalized against the value of 1 (1.00) [1] | cell viability/% [2] | antibacterial activity [3] |
| --- | --- | --- | --- |
| CNC(=O)C[C@@H](NC(=O)[C@@H](NC(=O)[C@@H](CC(C)C)NC(=O)[C@H](C)NC(=O)[C@@H](CC(C)C)NC(=O)[C@H](C)NC(=O)CNC(=O)[C@@H](NC=O)C(C)C)C(C)C)C(=O)N[C@@H](Cc1c[nH]c2ccccc12)C(=O)N[C@H](CC(C)C)C(=O)N[C@@H](Cc1c[nH]c2ccccc12)C(=O)N[C@@H](C(=O)N[C@@H](Cc1c[nH]c2ccccc12)C(=O)N[C@H](CC(C)C)C(=O)N[C@@H](Cc1c[nH]c2ccccc12)C(=O)NCCO)C(C)C [compound 8600] (For-VGA[dL]A[dL]V[dD](NHMe)W[dL]W[dV]W[dL]W-NHCH2CH2OH) | 1.20 | 55.3% | - |
| CC(C)C[C@@H](NC(=O)[C@H](Cc1c[nH]c2ccccc12)NC(=O)[C@@H](CC(C)C)NC(=O)[C@H](Cc1c[nH]c2ccccc12)NC(=O)[C@H](NC(=O)[C@H](Cc1c[nH]c2ccccc12)NC(=O)[C@@H](CC(C)C)NC(=O)[C@@H](NC(=O)[C@H](NC(=O)[C@H](C)NC(=O)[C@H](NC(=O)[C@H](C)NC(=O)CNC(=O)[C@@H](NC=O)C(C)C)C(C)C)C(C)C)C(C)C)C(C)C)C(=O)N[C@@H](Cc1c[nH]c2ccccc12)C(=O)NCCO [compound 4329] (For-VGA[dV]A[dV]V[dL]W[dV]W[dL]W[dL]W-NHCH2CH2OH) | 1.18 | 14.3% | - |
| CC(C)C[C@@H](NC(=O)[C@H](C)NC(=O)CNC(=O)[C@@H](NC=O)C(C)C)C(=O)N[C@@H](C)C(=O)N[C@H](CC(C)C)C(=O)N[C@H](C(=O)N[C@H](CC(C)C)C(=O)N[C@@H](Cc1c[nH]c2ccccc12)C(=O)N[C@H](CC(C)C)C(=O)N[C@@H](Cc1c[nH]c2ccccc12)C(=O)N[C@@H](C(=O)N[C@@H](Cc1c[nH]c2ccccc12)C(=O)N[C@@H](C(=O)N[C@@H](Cc1c[nH]c2ccccc12)C(=O)NCCO)C(C)C)[C@H](C)O)C(C)C [compound 12989] (For-VGA[dL]A[dL]V[dL]W[dL]W[dT]W[dV]W-NHCH2CH2OH) | 1.16 | 100.0% | + |
| CC(C)C[C@@H](NC(=O)[C@H](Cc1c[nH]c2ccccc12)NC(=O)[C@H](NC(=O)[C@H](Cc1c[nH]c2ccccc12)NC(=O)[C@H](NC(=O)[C@@H](NC(=O)[C@H](NC(=O)[C@H](C)NC(=O)[C@H](NC(=O)[C@H](C)NC(=O)CNC(=O)[C@@H](NC=O)C(C)C)C(C)C)C(C)C)C(C)C)C(C)C)C(C)C)C(=O)N[C@@H](Cc1c[nH]c2ccccc12)C(=O)N[C@@H](C(=O)N[C@@H](Cc1c[nH]c2ccccc12)C(=O)NCCO)C(C)C [compound 6165] (For-VGA[dV]A[dV]V[dV]W[dV]W[dL]W[dV]W-NHCH2CH2OH) | 1.07 | 67.9% | - |
| CC(C)C[C@@H](NC(=O)[C@H](C)NC(=O)CNC(=O)[C@@H](NC=O)C(C)C)C(=O)N[C@@H](C)C(=O)N[C@H](CC(C)C)C(=O)N[C@H](C(=O)N[C@@H](C(=O)N[C@@H](Cc1c[nH]c2ccccc12)C(=O)N[C@@H](C(=O)N[C@@H](Cc1c[nH]c2ccccc12)C(=O)N[C@@H](C(=O)N[C@@H](Cc1c[nH]c2ccccc12)C(=O)N[C@H](CC(C)C)C(=O)N[C@@H](Cc1c[nH]c2ccccc12)C(=O)NCCO)C(C)C)[C@H](C)O)C(C)C)C(C)C [compound 10542] (For-VGA[dL]A[dL]V[dV]W[dT]W[dV]W[dL]W-NHCH2CH2OH) | 1.02 | 100.0% | - |
| CC(C)C[C@@H](NC(=O)[C@H](Cc1c[nH]c2ccccc12)NC(=O)[C@H](NC(=O)[C@H](Cc1c[nH]c2ccccc12)NC(=O)[C@@H](CC(C)C)NC(=O)[C@H](Cc1c[nH]c2ccccc12)NC(=O)[C@H](NC(=O)[C@@H](NC(=O)[C@H](NC(=O)[C@H](C)NC(=O)[C@H](NC(=O)[C@H](C)NC(=O)CNC(=O)[C@@H](NC=O)C(C)C)[C@H](C)O)C(C)C)C(C)C)C(C)C)C(C)C)C(=O)N[C@@H](Cc1c[nH]c2ccccc12)C(=O)NCCO [compound 11199] (For-VGA[dT]A[dV]V[dV]W[dL]W[dV]W[dL]W-NHCH2CH2OH) | 1.00 | 65.2% | - |
| CC(C)C[C@@H](NC(=O)[C@H](C)NC(=O)CNC(=O)[C@@H](NC=O)C(C)C)C(=O)N[C@@H](C)C(=O)N[C@H](CC(C)C)C(=O)N[C@H](C(=O)N[C@H](CC(C)C)C(=O)N[C@@H](Cc1c[nH]c2ccccc12)C(=O)N[C@@H](C(=O)N[C@@H](Cc1c[nH]c2ccccc12)C(=O)N[C@@H](C(=O)N[C@@H](Cc1c[nH]c2ccccc12)C(=O)N[C@@H](C(=O)N[C@@H](Cc1c[nH]c2ccccc12)C(=O)NCCO)C(C)C)C(C)C)[C@H](C)O)C(C)C [compound 5679] (For-VGA[dL]A[dL]V[dL]W[dT]W[dV]W[dV]W-NHCH2CH2OH) | 1.06 | 90.5% | - |
| CC(C)C[C@@H](NC(=O)[C@H](C)NC(=O)CNC(=O)[C@@H](NC=O)C(C)C)C(=O)N[C@@H](C)C(=O)N[C@H](CC(C)C)C(=O)N[C@H](C(=O)N[C@H](CC(C)C)C(=O)N[C@@H](Cc1c[nH]c2ccccc12)C(=O)N[C@@H](C(=O)N[C@@H](Cc1c[nH]c2ccccc12)C(=O)N[C@@H](C(=O)N[C@@H](Cc1c[nH]c2ccccc12)C(=O)N[C@@H](C(=O)N[C@@H](Cc1c[nH]c2ccccc12)C(=O)NCCO)C(C)C)C(C)C)[C@H](C)O)C(C)C [compound 4532] (For-VGA[dL]A[dL]V[dL]W[dT]W[dV]W[dV]W-NHCH2CH2OH) | 1.11 | 100.0% | - |
| CC(C)C[C@@H](NC(=O)[C@H](C)NC(=O)[C@H](NC(=O)[C@H](C)NC(=O)CNC(=O)[C@@H](NC=O)C(C)C)C(C)C)C(=O)N[C@H](C(=O)N[C@H](CC(C)C)C(=O)N[C@@H](Cc1c[nH]c2ccccc12)C(=O)N[C@H](CC(C)C)C(=O)N[C@@H](Cc1c[nH]c2ccccc12)C(=O)N[C@@H](C(=O)N[C@@H](Cc1c[nH]c2ccccc12)C(=O)N[C@@H](C(=O)N[C@@H](Cc1c[nH]c2ccccc12)C(=O)NCCO)C(C)C)C(C)C)C(C)C [compound 11280] (For-VGA[dV]A[dL]V[dL]W[dL]W[dV]W[dV]W-NHCH2CH2OH) | 1.04 | 9.9% | - |
| CC(C)C[C@@H](NC(=O)[C@@H](NC(=O)[C@H](NC(=O)[C@H](C)NC(=O)[C@H](NC(=O)[C@H](C)NC(=O)CNC(=O)[C@@H](NC=O)C(C)C)C(C)C)C(C)C)C(C)C)C(=O)N[C@@H](Cc1c[nH]c2ccccc12)C(=O)N[C@@H](C(=O)N[C@@H](Cc1c[nH]c2ccccc12)C(=O)N[C@@H](C(=O)N[C@@H](Cc1c[nH]c2ccccc12)C(=O)N[C@@H](C(=O)N[C@@H](Cc1c[nH]c2ccccc12)C(=O)NCCO)[C@H](C)O)C(C)C)C(C)C [compound 6781] (For-VGA[dV]A[dV]V[dL]W[dV]W[dV]W[dT]W-NHCH2CH2OH) | 1.04 | 100.0% | + |
| CNC(=O)C[C@@H](NC(=O)[C@@H](NC(=O)[C@H](NC(=O)[C@H](C)NC(=O)[C@H](NC(=O)[C@H](C)NC(=O)CNC(=O)[C@@H](NC=O)C(C)C)C(C)C)C(C)C)C(C)C)C(=O)N[C@@H](Cc1c[nH]c2ccccc12)C(=O)N[C@H](CC(C)C)C(=O)N[C@@H](Cc1c[nH]c2ccccc12)C(=O)N[C@H](CC(C)C)C(=O)N[C@@H](Cc1c[nH]c2ccccc12)C(=O)N[C@@H](C(=O)N[C@@H](Cc1c[nH]c2ccccc12)C(=O)NCCO)C(C)C [compound 12373] (For-VGA[dV]A[dV]V[dD](NHMe)W[dL]W[dL]W[dV]W-NHCH2CH2OH) | 1.04 | 100.0% | - |
| CC(C)C[C@@H](NC(=O)[C@H](C)NC(=O)CNC(=O)[C@@H](NC=O)C(C)C)C(=O)N[C@@H](C)C(=O)N[C@@H](C(=O)N[C@H](C(=O)N[C@H](CC(C)C)C(=O)N[C@@H](Cc1c[nH]c2ccccc12)C(=O)N[C@@H](C(=O)N[C@@H](Cc1c[nH]c2ccccc12)C(=O)N[C@H](CC(C)C)C(=O)N[C@@H](Cc1c[nH]c2ccccc12)C(=O)N[C@@H](C(=O)N[C@@H](Cc1c[nH]c2ccccc12)C(=O)NCCO)[C@H](C)O)C(C)C)C(C)C)C(C)C [compound 8906] (For-VGA[dL]A[dV]V[dL]W[dV]W[dL]W[dT]W-NHCH2CH2OH) | 1.08 | 79.1% | + |
| CNC(=O)C[C@@H](NC(=O)[C@H](Cc1c[nH]c2ccccc12)NC(=O)[C@@H](CC(C)C)NC(=O)[C@@H](NC(=O)[C@@H](CC(C)C)NC(=O)[C@H](C)NC(=O)[C@H](NC(=O)[C@H](C)NC(=O)CNC(=O)[C@@H](NC=O)C(C)C)C(C)C)C(C)C)C(=O)N[C@@H](Cc1c[nH]c2ccccc12)C(=O)N[C@@H](C(=O)N[C@@H](Cc1c[nH]c2ccccc12)C(=O)N[C@@H](C(=O)N[C@@H](Cc1c[nH]c2ccccc12)C(=O)NCCO)C(C)C)C(C)C [compound 3144] (For-VGA[dV]A[dL]V[dL]W[dD](NHMe)W[dV]W[dV]W-NHCH2CH2OH) | 1.01 | 100.0% | - |
